Reference: ChEMBL document CHEMBL4477208, “Discovery and Rational Design of Pteridin-7(8H)-one-Based Inhibitors Targeting FMS-like Tyrosine Kinase 3 (FLT3) and Its Mutants” (J Med Chem, 2016)
Active and inactive are the calls of the source. The rule behind the calls is not given here.

Experiments:
[1] = system: Receptor-type tyrosine-protein kinase FLT3 (Homo sapiens), P36888 [UNDEFINED MUTATION]; test: Inhibition of human FLT3 ITD mutant expressed in bacterial system assessed as remaining enzyme activity at 1 uM relative to untreated control
[2] = system: Receptor-type tyrosine-protein kinase FLT3 (Homo sapiens), P36888 [UNDEFINED MUTATION]; test: Inhibition of human FLT3 ITD/F691L mutant expressed in mammalian system assessed as remaining enzyme activity at 1 uM relative to untreated control
[3] = molecular target: Tyrosine-protein kinase JAK1 (Homo sapiens) (UniProt P23458); test: Inhibition of human JAK1 expressed in mammalian or bacterial system assessed as remaining enzyme activity at 1 uM relative to untreated control
[4] = molecular target: Receptor-type tyrosine-protein kinase FLT3 (Homo sapiens, UniProt P36888, ITD); test: Binding affinity to human partial length FLT3 ITD mutant expressed in bacterial expression system after 1 hr
[5] = molecular target: Macrophage colony-stimulating factor 1 receptor (Homo sapiens) (UniProt P07333); test: Inhibition of human CSF1R expressed in bacterial system assessed as remaining enzyme activity at 1 uM relative to untreated control
[6] = system: MV4-11; test: Induction of apoptosis in human MV4-11 cells assessed as necrotic cells at 1000 nM after 48 hrs by annexin V/propidium iodide staining based FACS analysis (reference value: 0.05%); assay type: functional
[7] = system: MV4-11; test: Antitumor activity against human MV4-11 cells xenografted in nude BALB/c mouse assessed as induction of late stage apoptosis at 50 mg/kg, po qd measured after 1 to 3 days by TUNEL assay; assay type: functional, organism-based
[8] = system: Receptor-type tyrosine-protein kinase FLT3 (Homo sapiens), P36888 [D835V]; test: Inhibition of human FLT3 D835V mutant expressed in mammalian system assessed as remaining enzyme activity at 1 uM relative to untreated control
[9] = Half life in overnight fasted Sprague-Dawley rat plasma at 1 mg/kg, iv up to 24 hrs by LC-MS/MS analysis; assay type: ADME, organism-based
[10] = system: MV4-11; test: Cell cycle arrest in human MV4-11 cells assessed as accumulation at G0/G1 phase at 1 nM after 48 hrs by PI/RNase staining based FACS analysis (reference value: 69.55%); assay type: functional
[11] = system: MV4-11; test: Cell cycle arrest in human MV4-11 cells assessed as accumulation at G0/G1 phase at 10 nM after 48 hrs by PI/RNase staining based FACS analysis (reference value: 69.55%); assay type: functional
[12] = system: NCI-H209; test: Antiproliferative activity against human H209 cells after 72 hrs by MTT assay; assay type: functional, cell-based; conditions: NCI-H209, 72 h
[13] = system: MOLT-4; test: Antiproliferative activity against human MOLT4 cells after 72 hrs by MTT assay; assay type: functional, cell-based; conditions: MOLT-4, 72 h
[14] = system: MV4-11; test: Induction of apoptosis in human MV4-11 cells assessed as early apoptotic cells at 1 nM after 48 hrs by annexin V/propidium iodide staining based FACS analysis (reference value: 6.31%); assay type: functional
[15] = system: MV4-11; test: Cell cycle arrest in human MV4-11 cells assessed as accumulation at G0/G1 phase at 100 nM after 48 hrs by PI/RNase staining based FACS analysis (reference value: 69.55%); assay type: functional
[16] = system: MV4-11; test: animal or person; conditions: Mus musculus, MV4-11, po, read-out: TGI
Description: Antitumor activity against human MV4-11 cells xenografted in nude BALB/c mouse assessed as tumor growth inhibition at 10 mg/kg, po qd for 14 days measured every 2 days

[17] = Cmax in overnight fasted Sprague-Dawley rat plasma at 1 mg/kg, iv up to 24 hrs by LC-MS/MS analysis; assay type: ADME, organism-based; set-up: dose 1 mg/kg, route intravenous
[18] = system: NCI-H187; test: Antiproliferative activity against human NCI-H187 cells after 72 hrs by MTT assay; assay type: functional, cell-based; conditions: NCI-H187, 72 h
[19] = system: MV4-11; test: Induction of apoptosis in human MV4-11 cells assessed as necrotic cells at 10 nM after 48 hrs by annexin V/propidium iodide staining based FACS analysis (reference value: 0.05%); assay type: functional
[20] = Ratio of IC50 for human WI38 cells to IC50 for human MV4-11 cells; assay type: toxicity; conditions: WI38 cells versus MV4-11 cells, read-out: Ratio IC50
[21] = Volume of distribution at steady state in overnight fasted Sprague-Dawley rat plasma at 1 mg/kg, iv up to 24 hrs by LC-MS/MS analysis; assay type: ADME, organism-based; conditions: read-out: Vdss
[22] = system: MV4-11; test: Antiproliferative activity against human MV4-11 cells after 72 hrs by MTT assay; assay type: functional, cell-based; conditions: MV4-11, 72 h
[23] = system: HL-60; test: Antiproliferative activity against human HL60 cells after 72 hrs by MTT assay; assay type: functional, cell-based; conditions: HL-60, 72 h

Tyrosine-protein kinase JAK1 (Homo sapiens), sequence (P23458 whole entry): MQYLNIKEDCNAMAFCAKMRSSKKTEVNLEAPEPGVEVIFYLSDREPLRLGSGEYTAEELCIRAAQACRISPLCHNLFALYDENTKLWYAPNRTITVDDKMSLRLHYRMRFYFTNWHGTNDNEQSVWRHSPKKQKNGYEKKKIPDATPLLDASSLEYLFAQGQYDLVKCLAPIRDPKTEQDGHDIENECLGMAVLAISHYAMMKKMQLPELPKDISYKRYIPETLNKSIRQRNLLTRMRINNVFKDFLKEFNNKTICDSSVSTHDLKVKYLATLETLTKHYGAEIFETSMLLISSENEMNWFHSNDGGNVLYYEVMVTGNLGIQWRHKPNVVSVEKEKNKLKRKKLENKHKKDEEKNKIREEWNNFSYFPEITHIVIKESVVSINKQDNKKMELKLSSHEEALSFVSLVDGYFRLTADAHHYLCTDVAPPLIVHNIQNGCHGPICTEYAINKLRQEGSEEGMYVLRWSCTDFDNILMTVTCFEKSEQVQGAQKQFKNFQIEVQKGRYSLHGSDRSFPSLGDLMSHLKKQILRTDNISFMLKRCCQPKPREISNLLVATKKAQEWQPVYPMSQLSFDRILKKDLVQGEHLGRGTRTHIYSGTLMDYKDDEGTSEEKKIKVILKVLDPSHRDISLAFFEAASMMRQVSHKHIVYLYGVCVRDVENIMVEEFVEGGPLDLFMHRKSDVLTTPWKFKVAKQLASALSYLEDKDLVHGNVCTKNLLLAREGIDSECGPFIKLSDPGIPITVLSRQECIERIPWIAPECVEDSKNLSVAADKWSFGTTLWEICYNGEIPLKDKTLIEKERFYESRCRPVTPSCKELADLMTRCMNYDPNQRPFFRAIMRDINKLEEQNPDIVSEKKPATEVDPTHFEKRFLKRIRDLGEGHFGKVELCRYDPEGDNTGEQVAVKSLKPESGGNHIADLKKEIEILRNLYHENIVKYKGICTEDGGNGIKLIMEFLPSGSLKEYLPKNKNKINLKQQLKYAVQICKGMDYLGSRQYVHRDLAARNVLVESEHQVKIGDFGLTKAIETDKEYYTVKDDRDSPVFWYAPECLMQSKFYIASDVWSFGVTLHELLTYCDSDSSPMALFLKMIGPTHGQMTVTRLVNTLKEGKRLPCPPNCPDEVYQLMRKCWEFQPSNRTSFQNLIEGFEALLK
Macrophage colony-stimulating factor 1 receptor (Homo sapiens), sequence (P07333 whole entry): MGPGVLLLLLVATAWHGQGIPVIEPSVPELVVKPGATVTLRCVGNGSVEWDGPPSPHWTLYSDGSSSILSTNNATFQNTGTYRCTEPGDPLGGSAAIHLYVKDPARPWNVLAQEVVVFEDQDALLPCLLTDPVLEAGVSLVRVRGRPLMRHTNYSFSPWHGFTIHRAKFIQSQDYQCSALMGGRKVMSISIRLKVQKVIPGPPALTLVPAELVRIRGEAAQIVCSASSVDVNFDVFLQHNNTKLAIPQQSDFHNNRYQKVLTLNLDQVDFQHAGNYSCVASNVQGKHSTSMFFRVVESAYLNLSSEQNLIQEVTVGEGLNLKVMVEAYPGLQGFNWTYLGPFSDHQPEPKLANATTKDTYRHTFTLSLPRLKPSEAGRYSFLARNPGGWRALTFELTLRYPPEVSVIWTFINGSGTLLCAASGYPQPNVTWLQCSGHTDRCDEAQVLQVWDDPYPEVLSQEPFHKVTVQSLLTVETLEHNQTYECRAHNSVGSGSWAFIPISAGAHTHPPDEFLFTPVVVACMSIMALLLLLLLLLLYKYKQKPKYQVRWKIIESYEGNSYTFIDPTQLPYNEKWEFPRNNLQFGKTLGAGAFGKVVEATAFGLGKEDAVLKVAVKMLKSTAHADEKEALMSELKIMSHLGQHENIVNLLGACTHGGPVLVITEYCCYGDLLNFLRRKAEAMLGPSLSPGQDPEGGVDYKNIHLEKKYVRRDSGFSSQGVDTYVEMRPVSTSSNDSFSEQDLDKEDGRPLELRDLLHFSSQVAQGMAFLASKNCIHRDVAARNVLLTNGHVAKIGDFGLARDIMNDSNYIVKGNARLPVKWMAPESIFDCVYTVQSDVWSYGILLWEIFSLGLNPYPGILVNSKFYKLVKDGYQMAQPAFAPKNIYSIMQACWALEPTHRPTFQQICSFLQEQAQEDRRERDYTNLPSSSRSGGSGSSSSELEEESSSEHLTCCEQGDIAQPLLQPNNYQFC

With `Cc1cc(Nc2ncc3ncc(=O)n(-c4ccc(N)cc4)c3n2)ccc1N1CCN(C)CC1` the Activity [1] was < 1%, the Activity [2] was < 1% and the Activity [3] was < 1%. The Kd [4] was 0.0069 µM, the Activity [5] was < 1% and the Activity [6] was 0.05%. For the same compound, the Activity [7] was “Active”, the Activity [8] was < 1% and the half-life [9] was 3.11 h. For the same compound, the Activity [10] was 65.64%, the Activity [11] was 70.2% and the IC50 [12] was > 10 µM. It also gave an IC50 [13] of 2.12 µM, an Activity [14] of 6.09% and an Activity [15] of 85.92%. For the same compound, the inhibition in vivo at 10 mg/kg [16] was 28%, the Cmax [17] was 55.2 ng/mL and the IC50 [18] was > 10 µM. For the same compound, the Activity [19] was 0.01%, the selectivity ratio [20] was 33 to 81 and the Vd [21] was 27.7 L/kg. The IC50 [22] was 0.051 µM and the IC50 [23] was 1.38 µM.
